Like-named read-outs stand apart in the source and are kept apart here.
How the values were obtained:
[1] = target: soluble human BACE1 catalytic domain (Homo sapiens (Human), UniProt P56817); experiment: BACE1 HTRF FRET Assay; format: biochemical; conditions: Ki calculated from IC50 using the Cheng-Prusoff equation; QSY7-APPswe-Eu substrate, pH 5.0
Text: Reagents: Na^+-Acetate pH 5.0; 1% Brij-35; Glycerol; Dimethyl Sulfoxide (DMSO); Recombinant human soluble BACE1 catalytic domain (>95% pure); APP Swedish mutant peptide substrate (QSY7-APP^swe-Eu): QSY7-[…]-Europium-amide (SEQ ID 1).
A homogeneous time-resolved FRET assay can be used to determine IC50 values for inhibitors of the soluble human BACE1 catalytic domain. This assay monitors the increase of 620 nm fluorescence that resulted from BACE1 cleavage of an APPswedish APP^swe mutant peptide FRET substrate (QSY7-[…]-Europium-amide (SEQ ID 1)). This substrate contains an N-terminal QSY7 moiety that serves as a quencher of the C-terminal Europium fluorophore (620 nm Em). […] Inhibition of BACE1 cleavage of the QSY7-APP^swe-Eu substrate by inhibitors is manifested as a suppression of 620 nm fluorescence.
Varying concentrations of inhibitors at 3× the final desired concentration in a volume of 10 ul are preincubated with purified human BACE1 catalytic domain (3 nM in 10 μl) for 30 minutes at 30° C. in reaction buffer containing 20 mM Na-Acetate pH 5.0, 10% glycerol, 0.1% Brij-35 and 7.5% DSMO. Reactions are initiated by addition of 10 μl of 600 nM QSY7-APP^swe-Eu substrate (200 nM final) to give a final reaction volume of 30 μl in a 384 well Nunc HTRF plate. The reactions are incubated at 30° C. for 1.5 hours. The 620 nm fluorescence is then read on a Rubystar HTRF plate reader (BMG Labtechnologies) using a 50 millisecond delay followed by a 400 millisecond acquisition time window. Inhibitor IC50 values are derived from non-linear regression analysis of concentration response curves.

[2] = target: purified human autoBACE-2 (Homo sapiens, UniProt Q9Y5Z0); experiment: BACE-2 Assay (BACE-HTRF assay); format: biochemical; conditions: Ki calculated from IC50 using the Cheng-Prusoff equation, pH 5.0, read-out: BACE2 Ki
Experimental: DMSO is present at 5% final concentration in the assay. Following laser excitation of sample wells at 320 nm, the fluorescence signal at 620 nm is collected for 400 ms following a 50 μs delay on a RUBYstar HTRF plate reader (BMG Labtechnologies). Raw RFU data is normalized to maximum (1.0 nM BACE/DMSO) and minimum (no enzyme/DMSO) RFU values. […] The Ki values are calculated from the IC50 using the Cheng-Prusoff equation.

[3] = QSY7-EISEVNLDAEFC-Eu-amide substrate

purified human autoBACE-2, sequence (Q9Y5Z0 63-518 limits assumed): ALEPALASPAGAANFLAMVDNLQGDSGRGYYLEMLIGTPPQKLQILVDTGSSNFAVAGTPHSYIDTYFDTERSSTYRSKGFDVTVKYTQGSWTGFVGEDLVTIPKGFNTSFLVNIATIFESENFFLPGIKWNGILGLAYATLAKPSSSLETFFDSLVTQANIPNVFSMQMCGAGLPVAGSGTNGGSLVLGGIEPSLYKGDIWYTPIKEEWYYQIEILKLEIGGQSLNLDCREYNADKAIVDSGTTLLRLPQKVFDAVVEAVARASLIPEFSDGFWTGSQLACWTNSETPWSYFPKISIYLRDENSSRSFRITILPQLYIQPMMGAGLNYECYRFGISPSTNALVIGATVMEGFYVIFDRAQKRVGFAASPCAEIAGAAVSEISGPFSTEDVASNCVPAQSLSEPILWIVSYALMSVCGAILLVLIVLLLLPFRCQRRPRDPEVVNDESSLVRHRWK
soluble human BACE1 catalytic domain, sequence (P56817 75-416): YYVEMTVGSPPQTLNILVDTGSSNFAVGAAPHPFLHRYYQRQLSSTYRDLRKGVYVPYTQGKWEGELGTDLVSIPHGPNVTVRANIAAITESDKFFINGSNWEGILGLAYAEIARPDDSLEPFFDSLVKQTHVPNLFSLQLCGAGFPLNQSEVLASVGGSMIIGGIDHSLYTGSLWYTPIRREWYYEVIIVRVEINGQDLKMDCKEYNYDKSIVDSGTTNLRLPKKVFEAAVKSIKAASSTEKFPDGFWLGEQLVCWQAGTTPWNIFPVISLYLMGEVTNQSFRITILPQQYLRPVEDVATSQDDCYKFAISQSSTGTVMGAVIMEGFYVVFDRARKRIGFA

Compound | Ki [1] | Ki [2, 3] | Ki ([2]; QSY7-[…]-Eu-amide substrate)
COCCC(=O)Nc1ccc(F)c([C@]2(C)CN(C)S(=O)(=O)C(C)(C)C(=N)N2)c1 [Example 24, N-{4-fluoro-3-[(4R)-6-imino-2,4,7,7-tetramethyl-1,1-dioxido-1,2,5-thiadiazepan-4-yl]phenyl}-3-methoxypropanamide] | > 9760 nM | 4090 nM | –
COCC(=O)Nc1ccc(F)c([C@]2(C)CN(C)S(=O)(=O)C(C)(C)C(=N)N2)c1 [Example 25, N-{4-fluoro-3-[(4R)-6-imino-2,4,7,7-tetramethyl-1,1-dioxido-1,2,5-thiadiazepan-4-yl]phenyl}-2-methoxyacetamide] | 756 nM | 122 nM | –
CN1C[C@@](C)(c2cc(NC(=O)c3cn(C)nc3C(F)(F)F)ccc2F)NC(=N)C(C)(C)S1(=O)=O [Example 26, N-{4-fluoro-3-[(4R)-6-imino-2,4,7,7-tetramethyl-1,1-dioxido-1,2,5-thiadiazepan-4-yl]phenyl}-1-methyl-3-(trifluoromethyl)-1H-pyrazole-4-carboxamide] | 8790 nM | 6510 nM | –
CN1C[C@@](C)(c2cc(NC(=O)c3cn4ccsc4n3)ccc2F)NC(=N)C(C)(C)S1(=O)=O [Example 27, N-{4-fluoro-3-[(4R)-6-imino-2,4,7,7-tetramethyl-1,1-dioxido-1,2,5-thiadiazepan-4-yl]phenyl}imidazo[2,1-b][1,3]thiazole-6-carboxamide] | 285 nM | 46 nM | –
CN1C[C@@](C)(c2cc(NC(=O)C(F)F)ccc2F)NC(=N)C(C)(C)S1(=O)=O [Example 28, 2,2-difluoro-N-{4-fluoro-3-[(4R)-6-imino-2,4,7,7-tetramethyl-1,1-dioxido-1,2,5-thiadiazepan-4-yl]phenyl}acetamide] | 1200 nM | 354 nM | –
CO[C@H](C)C(=O)Nc1ccc(F)c([C@]2(C)CN(C)S(=O)(=O)C(C)(C)C(=N)N2)c1 [Example 29, (2R)-N-{4-fluoro-3-[(4R)-6-imino-2,4,7,7-tetramethyl-1,1-dioxido-1,2,5-thiadiazepan-4-yl]phenyl}-2-methoxypropanamide] | 4680 nM | 798 nM | –
CN1C[C@@](C)(c2cc(NC(=O)CC3CC3)ccc2F)NC(=N)C(C)(C)S1(=O)=O [Example 30, 2-cyclopropyl-N-{4-fluoro-3-[(4R)-6-imino-2,4,7,7-tetramethyl-1,1-dioxido-1,2,5-thiadiazepan-4-yl]phenyl}acetamide] | > 9760 nM | 2190 nM | –
CN1C[C@@](C)(c2cc(NC(=O)c3ncc(C(F)(F)F)cn3)ccc2F)NC(=N)C(C)(C)S1(=O)=O [Example 31, N-{4-fluoro-3-[(4R)-6-imino-2,4,7,7-tetramethyl-1,1-dioxido-1,2,5-thiadiazepan-4-yl]phenyl}-5-(trifluoromethyl)pyrimidine-2-carboxamide] | 189 nM | 202 nM | –
Cc1nc(C(=O)Nc2ccc(F)c([C@]3(C)CN(C)S(=O)(=O)C(C)(C)C(=N)N3)c2)c(C)o1 [Example 32, N-{4-fluoro-3-[(4R)-6-imino-2,4,7,7-tetramethyl-1,1-dioxido-1,2,5-thiadiazepan-4-yl]phenyl}-2,5-dimethyl-1,3-oxazole-4-carboxamide] | 165 nM | 54 nM | –
CN1C[C@@](C)(c2cc(NC(=O)C3CC3)ccc2F)NC(=N)C(C)(C)S1(=O)=O [Example 33, N-{4-fluoro-3-[(4R)-6-imino-2,4,7,7-tetramethyl-1,1-dioxido-1,2,5-thiadiazepan-4-yl]phenyl}cyclopropanecarboxamide] | 4350 nM | 1030 nM | –
CO[C@@H](C)C(=O)Nc1ccc(F)c([C@]2(C)CN(C)S(=O)(=O)C(C)(C)C(=N)N2)c1 [Example 34, (2S)-N-{4-fluoro-3-[(4R)-6-imino-2,4,7,7-tetramethyl-1,1-dioxido-1,2,5-thiadiazepan-4-yl]phenyl}-2-methoxypropanamide] | 3060 nM | 1120 nM | –
CC(=O)Nc1ccc(F)c([C@]2(C)CN(C)S(=O)(=O)C(C)(C)C(=N)N2)c1 [Example 35, N-{4-fluoro-3-[(4R)-6-imino-2,4,7,7-tetramethyl-1,1-dioxido-1,2,5-thiadiazepan-4-yl]phenyl}acetamide] | 5930 nM | 917 nM | –
C#CCOc1ccc(C(=O)Nc2ccc(F)c([C@]3(C)CN(C)S(=O)(=O)C(C)(C)C(=N)N3)c2)nc1 [Example 36, N-{4-fluoro-3-[(4R)-6-imino-2,4,7,7-tetramethyl-1,1-dioxido-1,2,5-thiadiazepan-4-yl]phenyl}-5-(prop-2-yn-1-yloxy)pyridine-2-carboxamide] | 15 nM | 195 nM | –
CN1C[C@@](C)(c2cc(NC(=O)c3cnc(C(F)(F)F)cn3)ccc2F)NC(=N)C(C)(C)S1(=O)=O [Example 37, N-{4-fluoro-3-[(4R)-6-imino-2,4,7,7-tetramethyl-1,1-dioxido-1,2,5-thiadiazepan-4-yl]phenyl}-5-(trifluoromethyl)pyrazine-2-carboxamide] | 153 nM | 361 nM | –
CN1C[C@@](C)(c2cc(NC(=O)c3ccc(OCF)cn3)ccc2F)NC(=N)C(C)(C)S1(=O)=O [Example 38, N-{4-fluoro-3-[(4R)-6-imino-2,4,7,7-tetramethyl-1,1-dioxido-1,2,5-thiadiazepan-4-yl]phenyl}-5-(fluoromethoxy)pyridine-2-carboxamide] | 37 nM | 46 nM | –
C#CCOc1cnc(C(=O)Nc2ccc(F)c([C@]3(C)CN(C)S(=O)(=O)C(C)(C)C(=N)N3)c2)cn1 [Example 39, N-{4-fluoro-3-[(4R)-6-imino-2,4,7,7-tetramethyl-1,1-dioxido-1,2,5-thiadiazepan-4-yl]phenyl}-5-(prop-2-yn-1-yloxy)pyrazine-2-carboxamide] | 2.3 nM | 34.3 nM | –
CN1C[C@@](C)(c2cc(OCc3ccc(C#N)cc3)ccc2F)NC(=N)C(C)(C)S1(=O)=O [Example 40, (R)-4-((4-fluoro-3-(6-imino-2,4,7,7-tetramethyl-1,1-dioxido-1,2,5-thiadiazepan-4-yl)phenoxy)methyl)benzonitrile] | 651 nM | – | 4050 nM
CN1C[C@@](C)(c2cc(Nc3nccc4cc(C#N)cnc34)ccc2F)NC(=N)C(C)(C)S1(=O)=O [Example 41, (R)-8-((4-fluoro-3-(6-imino-2,4,7,7-tetramethyl-1,1-dioxido-1,2,5-thiadiazepan-4-yl)phenyl)amino)-1,7-naphthyridine-3-carbonitrile] | 20 nM | – | 16 nM
CN1C[C@@](C)(c2cc(Nc3nccc4cc(Br)cnc34)ccc2F)NC(=N)C(C)(C)S1(=O)=O [Example 42, (R)-4-(5-((3-bromo-1,7-naphthyridin-8-yl)amino)-2-fluorophenyl)-6-imino-2,4,7,7-tetramethyl-1,2,5-thiadiazepane 1,1-dioxide] | 18 nM | – | 9 nM
COc1cnc2c(Nc3ccc(F)c([C@]4(C)CN(C)S(=O)(=O)C(C)(C)C(=N)N4)c3)nccc2c1 [Example 43, (R)-4-(2-fluoro-5-((3-methoxy-1,7-naphthyridin-8-yl)amino)phenyl)-6-imino-2,4,7,7-tetramethyl-1,2,5-thiadiazepane 1,1-dioxide] | 209 nM | – | 240 nM
CN1C[C@@](C)(c2cc(Nc3nccn4ccnc34)ccc2F)NC(=N)C(C)(C)S1(=O)=O [Example 44, (R)-4-(2-fluoro-5-(imidazo[1,2-a]pyrazin-8-ylamino)phenyl)-6-imino-2,4,7,7-tetramethyl-1,2,5-thiadiazepane 1,1-dioxide] | 1350 nM | – | 270 nM

Source: patent US9745324B2, “Iminothiadiazepane dioxide compounds as BACE inhibitors, compositions, and their use” (Merck Sharp & Dohme Corp., priority 2013, dated 2017)
